Laboratory results: US10787432B2, “N-[(pyridyloxy)propanyl]benzamides” (Boehringer Ingelheim International GmbH, priority 2016, dated 2020)
Like-named read-outs stand apart in the source and are kept apart here.

Assays:
human Orexin 1 receptor = molecular target: T1, human Orexin 1 receptor (Homo sapiens, UniProt O43613); assay: Assay A: In vitro testing of OX1R potency: OX1R IP1 (HTRF, CHO-K1/hOX1 cells, Orexin A as agonist); format: cell-based; details: for Kb: read-out: OX1R Kb (Orexin A concentration used)
T1 construct: stably expressing the full-length human Orexin 1 receptor; expressed in transfected cells; host or cells: CHO-K1 (CHO-K1/hOX1), co-expressing aequorin
T1 sequence (O43613 1-425): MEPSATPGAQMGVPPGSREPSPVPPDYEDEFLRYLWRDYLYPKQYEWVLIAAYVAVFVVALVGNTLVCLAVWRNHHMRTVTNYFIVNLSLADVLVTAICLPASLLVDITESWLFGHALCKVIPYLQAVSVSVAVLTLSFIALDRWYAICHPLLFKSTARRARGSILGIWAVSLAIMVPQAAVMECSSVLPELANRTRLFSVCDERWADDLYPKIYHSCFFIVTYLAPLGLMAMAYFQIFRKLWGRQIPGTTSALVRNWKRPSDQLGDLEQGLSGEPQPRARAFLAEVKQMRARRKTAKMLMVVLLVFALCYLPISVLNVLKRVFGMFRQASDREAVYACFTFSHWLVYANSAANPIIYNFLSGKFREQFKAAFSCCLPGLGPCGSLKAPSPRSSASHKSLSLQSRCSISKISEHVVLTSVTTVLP

human orexin 2 receptor = molecular target: T2, human orexin 2 receptor (Homo sapiens, UniProt O43614); assay: Assay B: In vitro testing of OX2R potency: OX2R IP1 (HTRF, CHO-K1/hOX2 cells, Orexin A as agonist); format: cell-based; details: Orexin A 0.5 nM
T2 construct: stably expressing the full-length human orexin 2 receptor; expressed in transfected cells; host or cells: CHO-K1 (CHO-K1/hOX2), co-expressing aequorin
T2 sequence (O43614 1-444): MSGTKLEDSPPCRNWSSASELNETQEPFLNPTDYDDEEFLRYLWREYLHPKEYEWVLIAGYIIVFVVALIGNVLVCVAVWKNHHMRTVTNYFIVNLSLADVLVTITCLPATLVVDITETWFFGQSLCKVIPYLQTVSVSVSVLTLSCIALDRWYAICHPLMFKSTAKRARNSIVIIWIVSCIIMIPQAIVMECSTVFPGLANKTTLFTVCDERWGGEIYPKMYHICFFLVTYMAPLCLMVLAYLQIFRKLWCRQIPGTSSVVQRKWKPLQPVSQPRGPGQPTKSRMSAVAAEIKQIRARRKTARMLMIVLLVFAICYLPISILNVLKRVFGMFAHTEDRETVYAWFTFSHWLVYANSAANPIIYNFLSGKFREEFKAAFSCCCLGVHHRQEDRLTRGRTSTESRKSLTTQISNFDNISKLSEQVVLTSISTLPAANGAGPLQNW
Description: Activation of the orexin receptors expressed in cell lines results in an increase in intracellular IP3 concentration. IP1, a downstream metabolite of IP3, accumulates in cells following receptor activation and is stable in the presence of LiCl. Using Homogeneous Time-Resolved Fluorescence technology with Lumi4-Tb cryptate (commercially available from Cisbio Bioassay.) and a suitable fluorescence plate reader. […] Chem. Genomics 2009, 3, 22-32. This technique is used to characterize pharmacological modification of the orexin receptors.
B. In Vitro Testing of OX2R Potency: OX2R IP1
IP1 measurements are performed in CHO-K1 cells stably expressing the full-length human orexin 2 receptor and the aequorin photoprotein. Cells are cultivated in Ham's nutrient mixture F12 medium with 10% fetal calf serum, in a 37° C., 95% humidity and 5% CO2 incubator. The CHO-K1/hOX2 cell mass is expanded to larger cell numbers. The cells are obtained as frozen cells in cryo-vials and stored until use at −150° C. The viability of the cells after thawing is >90%. In preparation for the assay, 24 hours before the assay, the cells are thawed at 37° C. and immediately diluted with cell culture medium. After centrifugation, the cell pellet is resuspended in medium and then distributed into the assay plates with a density of 5000 cells/25 μL per well. The plates are incubated for one hour at room temperature to reduce edge effects before they are incubated for 24 hours at 37° C./5% CO2. Compounds are prepared by a 8-point serial dilution in DMSO and a final dilution step into assay buffer (HBSS with 20 mM HEPES, 0.1% BSA and 50 mM LiCl, pH 7.4) to ensure a final DMSO concentration of 1% in the assay.
On the day of the assay, cells in the plate are washed twice with 60 μL assay buffer (20 μL buffer remained in the wells after washing), followed by adding 5 μL per well of compounds diluted in assay buffer. After 15 minutes of incubation at room temperature 5 μL per well of Orexin A peptide (final concentration: 0.5 nM) dissolved in assay buffer is added to the assay plate. The assay plate is incubated for 60 minutes at 37° C. Then 5 μL per well of Anti-IP1-Cryptate Tb solution and 5 μL per well of IP1-d2 dilution are added to all well of the plate and the plate is incubated for a further 60 minutes light protected at room temperature. The emission at 615 nm and 665 nm (Excitation wavelength: 320 nm) are measured using an EnVision reader (PerkinElmer). The ratio between the emission at 665 nm and 615 is calculated by the reader.
8-point four parametric non-linear curve fitting and determination of IC50 values and Hill slopes is performed using a regular analysis software e.g. AssayExplorer (Accelrys). In order to establish an agonist concentration independent parameter, Kb values are calculated using the following equation: IC50/((2+(A/EC50)n)^1/n−1) (with A=concentration agonist, EC50=EC50 agonist, n=Hill slope agonist) (see P. Leff, I. G. Dougall, Trends Pharmacol. Sci. 1993, 14(4), 110-112).
Kb values from Assay A (OX1R) and Assay B (OX2R) can then provide a selectivity ratio which is independent of the agonist (Orexin A) concentration.

[1] = Assay C: Metabolic stability in human liver microsomes (Human MST); format: in vitro ADME; details: pooled human liver microsomes, pH 7.6; human liver microsomes 1 mg/mL, compound 1 μM, 37° C., NADPH; read-out: Human MST t1/2
Experimental: C. Assessment of Metabolic Stability in Human Liver Microsomes (Human MST)
The metabolic stability of the compounds according to the invention may be investigated as follows:
The metabolic degradation of the test compound is assayed at 37° C. with pooled human liver microsomes. The final incubation volume of 100 μL per time point contains TRIS buffer pH 7.6 at room temperature (0.1 M), MgCl2 (5 mM), microsomal protein (1 mg/mL) and the test compound at a final concentration of 1 μM. Following a short pre-incubation period at 37° C., the reactions are initiated by addition of beta-nicotinamide adenine dinucleotide phosphate, reduced form (NADPH, 1 mM), and terminated by transferring an aliquot into solvent after different time points. After centrifugation (10000 g, 5 min), an aliquot of the supernatant is assayed by LC-MS/MS for the amount of parent compound. The half-life (t1/2) is determined by the slope of the semi-logarithmic plot of the concentration-time profile.

SMILES	OX2R Kb/OX1R Kb (human Orexin 1 receptor; OX1R Kb at 0.5 nM Orexin A)	Kb (human Orexin 1 receptor; Orexin A 0.5 nM) [nM]	Kb (human orexin 2 receptor) [nM]	half-life at 1 μM [1] [min]	OX2R Kb/OX1R Kb (human Orexin 1 receptor; OX1R Kb at 50 nM Orexin A)	Kb (human Orexin 1 receptor; Orexin A 50 nM) [nM]	OX2R Kb/OX1R Kb (human Orexin 1 receptor; OX1R Kb at 0.5 nM and 50 nM Orexin A)	Kb (human Orexin 1 receptor; Orexin A 0.5 nM and 50 nM) [nM]
CCN(C(=O)c1ccc(C#N)cc1-n1nccn1)[C@@H](C)COc1ncc(C(F)(F)F)cc1F [Example 69]	136	32	4340	43				
CCN(C(=O)c1cc(OC)ccc1-n1nccn1)[C@@H](C)COc1ccc(Cl)cn1 [Example 33]			33	20	236	0.14		
CCN(C(=O)c1ccccc1-c1cncc(C#N)c1)[C@@H](C)COc1ccc(C(F)(F)F)cn1 [Example 76]	113	1.1	124	11	125	0.99		
CCN(C(=O)c1cccc(F)c1-n1nccn1)[C@@H](C)COc1ccc(C(F)(F)F)cn1 [Example 109]			36	75	327	0.11		
CCN(C(=O)c1cc(F)c(F)cc1-n1nccn1)[C@@H](C)COc1ncc(C(F)(F)F)cc1F [Example 52]	256	2.1	538	38				
CCN(C(=O)c1cc(F)ccc1-c1ncccn1)[C@@H](C)COc1ccc(C(F)(F)F)cn1 [Example 107]			32	65	500	0.064		
CCN(C(=O)c1cccc(F)c1-n1nccn1)[C@@H](C)COc1ccc(Br)cn1 [Example 111]	123	0.4	49	62	213	0.23		
CCN(C(=O)c1cccc(F)c1-n1nccn1)[C@@H](C)COc1ncc(C(F)(F)F)cc1Cl [Example 110]			53	100	312	0.17		
CCN(C(=O)c1ccc(F)cc1-n1nccn1)[C@@H](C)COc1ccc(Cl)cn1 [Example 28]			86	39			51	1.7
CCN(C(=O)c1ccccc1-c1nnc(C)o1)[C@@H](C)COc1ccc(C(F)(F)F)cn1 [Example 22]	217	0.93	202	84	168	1.2		
CCN(C(=O)c1cc(F)ccc1-n1nccn1)[C@@H](C)COc1ncc(C(F)(F)F)cc1F [Example 51]	259	0.73	189	36	430	0.44		
CCN(C(=O)c1ccc(F)cc1-c1ncccn1)[C@@H](C)COc1ccc(C(F)(F)F)cn1 [Example 108]			45	50	409	0.11		
CCN(C(=O)c1c(-n2nccn2)ccc(C)c1F)[C@@H](C)COc1ccc(C(F)(F)F)cn1 [Example 92]			16	18	640	0.025		
CCN(C(=O)c1cc(F)ccc1-n1nccn1)[C@@H](C)COc1ccc(C(F)(F)F)cn1 [Example 3]			44	62	157	0.28		
CCN(C(=O)c1ccccc1-c1cnn(C)c1)[C@@H](C)COc1ncc(C(F)(F)F)cc1F [Example 132]	89	1.7	152	11				
CCN(C(=O)c1cccc(Cl)c1-n1nccn1)[C@@H](C)COc1ccc(OC(F)(F)F)cn1 [Example 134]			12	64	86	0.14		
CCN(C(=O)c1ccccc1-n1nccn1)[C@@H](C)COc1ncc(C(F)(F)F)cc1F [Example 47]	130	0.67	87	21	272	0.32		
CCN(C(=O)c1cc(C#N)ccc1-n1nccn1)[C@@H](C)COc1ccc(C(F)(F)F)cn1 [Example 95]	71	0.52	37	> 130	74	0.5		
CCN(C(=O)c1ccc(F)cc1-c1nnc(C)o1)[C@@H](C)COc1ccc(C(F)(F)F)cn1 [Example 14]	461	4.5	2070	> 130				
CCN(C(=O)c1cc(F)cc(F)c1-n1nccn1)[C@@H](C)COc1ccc(Cl)cn1 [Example 32]	106	1.1	117	46	143	0.82		
CCN(C(=O)c1ccccc1-c1ncccn1)[C@@H](C)COc1ccc(Br)cn1 [Example 117]	194	0.18	35	32	318	0.11		
CCN(C(=O)c1cc(C)ccc1-c1ncccn1)[C@@H](C)COc1ccc(C(F)(F)F)cn1 [Example 105]			11	10	524	0.021		
CCN(C(=O)c1cc(F)c(F)cc1-n1nccn1)[C@@H](C)COc1ccc(C(F)(F)F)cn1 [Example 4]	276	0.5	138	61	187	0.74		
